Data reported in US20210308211A1, “METHOD OF TREATING VIRAL INFECTIONS” (priority 2020, published 2021).
Values joined by “and” are separate entries in the source; they are usually repeats but may differ in a detail not shown here. Identical values can stand only once. Non-standard residues stand in square brackets, D forms with d. Residues, ends and D or L forms follow the SMILES beside them. pS = N[C@@H](COP(=O)(O)O)C(=O)O

Test system: Balb/c mice
Test: 31-day HDM-induced asthma model, BAL cell counts
Assay type: in vivo, mouse
Conditions: for B cells / DCs / Eosinophils / Macrophages / Neutrophils / T cells / Total cells: BAL, per mouse
Description: The aim of this study was to evaluate the effect of the P140 phosphopeptide administered systemically (intravenously) in a 31-day model of HDM-induced asthma in mice. The P140 phosphopeptide was solubilized in sterile water (Braun) and 10x concentrate sterile saline was added to adjust osmolarity to 300 mosm. Osmolarity was controlled with a micro osmometer (Löser, type 15) and validated (303 mosm). The P140 phosphopeptide was used in vivo at the dose of 4 mg/kg by intravenous (i.v.) routes. Control animals received equivalent volumes (2 ml/kg) of saline (Table 8).
Nine-week-old male Balb/c mice were sensitized by intranasal (i.n.) administration of HDM extract (Stallergenes): 1 μg in 25 μl saline on days 0, 1, 2, 3, 4, and 10 μg on days 14 and 21. Mice were challenged by i.n. administration of HDM (1 μg) and/or saline on days 28, 29 and 30. Mice were treated by i.v. injection (2 ml/kg) of P140 or solvent on day 25 (see FIG. 12).
BAL was performed after airway responsiveness measurement twenty-four hours after HDM challenge as described (Daubeuf et al. 2012). Mice were anaesthetized IP (Ketamine 150 mg/kg—Xylasine 10 mg/kg). Blood was collected from the heart, centrifuged at 10,000 g for 2 min and serum stored at −20° C.
After semi-excision of the trachea, a plastic cannula was inserted, and airspace washed with 0.5 ml of 0.9% NaCl injected with a 1 ml syringe. This procedure was performed 10 times. The initial concentrated supernatant of the 2 first lavages (volume=2×0.5 ml administered, approximately 0.5 ml recovered) was collected for cytokine measurements. The remaining BAL fluid was centrifuged (300 g for 5 min, 4° C.), and cell pellets pooled. The cell pellet was suspended in 500 μl of 0.9% NaCl and used for total cell counts evaluated on a Muse® Cell Analyser (Millipore). Differential cell counts were assessed by flow cytometry (LSRII® cytometer, BD Bioscience). BAL cells were added with FCblock (0.5 μl, 553142, BD Bioscience) in a black microplate, incubated for 20 min at room temperature. Then, marker antibodies were added: CD11c-FITC (557400, BD bioscience), Gr-1-PeeFluor610 (61-5931-82, eBioscience), F4/80-PE (12-4801-82, eBioscience), CD11b-APC-Cy7 (557657, BD bioscience), CD45-AlexaFluor700 (103128, BioLegend), CD3-BV605 (564009, BD bioscience), CD19-PE-Cy7 (552854, BD bioscience). Antibodies were incubated with BAL cells for 30 min at room temperature before DAPI (5 μl, BD bioscience) addition, and flow cytometry was performed immediately.
All mice were sensitized to HDM on days 0, 1, 2, 3, 4, 14, 21, and challenged either with saline ([…]) or HDM (challenge with allergen). Results are presented as means±SEM. Differences between groups were tested for statistical significance using Student's t test for inflammatory cells and a two-way ANOVA followed by Bonferroni post-test for airway responses.

[1] = HDM + P140 (i.v. 4 mg/kg day 25, HDM-challenged)
[2] = P140 i.v. 4 mg/kg day 25, HDM-sensitized, saline-challenged (chronic asthma)
[3] = chronic asthma (saline challenge), 4 mg/kg i.v. day 25, BAL, non-significant
[4] = chronic asthma (saline challenge), 4 mg/kg i.v. day 25, BAL, p<0.05

What does the source list for `CC[C@H](C)[C@H](NC(=O)[C@H](Cc1ccccc1)NC(=O)[C@H](C)NC(=O)[C@H](Cc1ccc(O)cc1)NC(=O)CNC(=O)[C@H](CCCNC(=N)N)NC(=O)[C@@H]1CCCN1C(=O)[C@H](CCCCN)NC(=O)CNC(=O)[C@H](COP(=O)(O)O)NC(=O)[C@H](CCCNC(=N)N)NC(=O)[C@H](CCCCN)NC(=O)[C@H](CO)NC(=O)[C@H](Cc1ccc(O)cc1)NC(=O)[C@@H](NC(=O)[C@H](CCSC)NC(=O)[C@H](Cc1c[nH]cn1)NC(=O)[C@@H](NC(=O)[C@@H](N)CCCNC(=N)N)[C@@H](C)CC)C(C)C)C(=O)N[C@@H](CCC(=O)O)C(=O)N[C@@H](Cc1ccc(O)cc1)C(=O)O` [Compound P140] (H-RIHMVYSKR[pS]GKPRGYAFIEY-OH; N-terminus and C-terminus assumed)?
B cells [1]: 59092 and 102246 and 42085 and 25443 and 116814 and 115000 and 53947 and 170980; DCs [1]: 1034 and 2238 and 1793 and 242 and 586 and 1350 and 733 and 1928; Eosinophils [1]: 955824 and 1404942 and 636065 and 342046 and 1283190 and 1036803 and 538210 and 1010686; Macrophages [1]: 58705 and 118771 and 314326 and 126002 and 34364 and 38709 and 29121 and 73491; Neutrophils [1]: 606700 and 510027 and 500004 and 147616 and 371317 and 487119 and 284503 and 24426; T cells [1]: 400329 and 735865 and 383074 and 243813 and 469834 and 502985 and 334784 and 1056303; Total cells [1]: 2140000 and 2992000 and 2190000 and 1010000 and 2310000 and 2220000 and 1270000 and 2410000; B cells [2]: 2297 and 44688 and 22879 and 11101 and 7660; DCs [2]: 0 and 484 and 461 and 319 and 160; Eosinophils [2]: 124514 and 450346 and 448074 and 205568 and 239527; Macrophages [2]: 130734 and 267685 and 360987 and 177815 and 73725; Neutrophils [2]: 2584 and 35734 and 23986 and 34836 and 2394; T cells [2]: 57711 and 323523 and 294011 and 208439 and 86810; Total cells [2]: 448000 and 1390000 and 1510000 and 815000 and 484000; Inflammatory cell recruitment in BAL (in words) (HDM-challenged mice, in comparison to the solvent group): no effect; Number of B cells, change vs solvent group [3]: −40%; Number of eosinophils, change vs solvent group [3]: −25%; Number of macrophages, increase vs solvent group [4]: 4.5 fold; Number of neutrophils, change vs solvent group [4]: −71%
